PMC11513924, “Addressing the Intracellular Vestibule of the Plasmodial Lactate Transporter PfFNT by p-Substituted Inhibitors Amplifies In Vitro Activity” (Journal of Medicinal Chemistry, 2024)

System: Plasmodium falciparum 3D7 parasites
Assay: P. falciparum 3D7 culture growth assay in erythrocytes (in vitro activity)
Type: cell-based
Conditions: Plasmodium falciparum, 3D7, Erythrocyte, 48 h; 50 nM compound, % of untreated control; read-out: % Growth at 50 nM (in vitro, 3D7)
Method: The parasitemia was measured using an LSR II FACS (BD Biosciences) as described.[34],[35] Growth was assessed as % of untreated control. EC50 curves were plotted using Graph Pad Prism.
Transport assays in yeast were done in triplicate biological replicates. At least nine technical replicates were measured around the IC50 value, concentrations with no or full inhibition were determined from at least three technical replicates. […] IC50 and EC50 curves were fitted by the Hill equation with variable slope (Graph Pad Prism 10). Error bars denote ± SEM (for n ≥ 3) or ± range (for n = 2). […] Cytotoxicity was determined from biological triplicates; error is shown as SEM.

Row | Structure (SMILES) | activity at 0.05 µM [%]
1 | CCCCNc1ccc(C(=O)/C=C(\O)C(F)(F)C(F)(F)F)cn1 [7f, 1-(6-(Butylamino)pyridin-3-yl)-4,4,5,5,5-pentafluoro-3-hydroxypent-2-en-1-one] | 25
2 | CCCCCNc1ccc(C(=O)/C=C(\O)C(F)(F)C(F)(F)F)cn1 [7g, 4,4,5,5,5-Pentafluoro-3-hydroxy-1-(6-(pentylamino)pyridin-3-yl)pent-2-en-1-one] | 37
3 | COCCCNc1ccc(C(=O)/C=C(\O)C(F)(F)C(F)(F)F)cn1 [7h, 4,4,5,5,5-Pentafluoro-3-hydroxy-1-(6-((3-methoxypropyl)amino)pyridin-3-yl)pent-2-en-1-one] | 65
4 | O=C(/C=C(\O)C(F)(F)C(F)(F)F)c1ccc(NCC(F)(F)F)nc1 [7i, 4,4,5,5,5-Pentafluoro-3-hydroxy-1-(6-((2,2,2-trifluoroethyl)amino)pyridin-3-yl)pent-2-en-1-one] | 71
5 | CC(C)CNc1ccc(C(=O)/C=C(\O)C(F)(F)C(F)(F)F)cn1 [7j, 4,4,5,5,5-Pentafluoro-3-hydroxy-1-(6-(isobutylamino)pyridin-3-yl)pent-2-en-1-one] | 61

Same assay, conditions: Plasmodium falciparum, 3D7, Erythrocyte, 48 h; 100 nM compound, % of untreated control; read-out: % Growth at 100 nM (in vitro, 3D7)

Row | Structure (SMILES) | activity at 0.1 µM [%]
6 | CCCCNc1ccc(C(=O)/C=C(\O)C(F)(F)C(F)(F)F)cn1 [7f, 1-(6-(Butylamino)pyridin-3-yl)-4,4,5,5,5-pentafluoro-3-hydroxypent-2-en-1-one] | 15
7 | CCCCCNc1ccc(C(=O)/C=C(\O)C(F)(F)C(F)(F)F)cn1 [7g, 4,4,5,5,5-Pentafluoro-3-hydroxy-1-(6-(pentylamino)pyridin-3-yl)pent-2-en-1-one] | 12
8 | O=C(/C=C(\O)C(F)(F)C(F)(F)F)c1ccc(NCC(F)(F)F)nc1 [7i, 4,4,5,5,5-Pentafluoro-3-hydroxy-1-(6-((2,2,2-trifluoroethyl)amino)pyridin-3-yl)pent-2-en-1-one] | 38
9 | CC(C)CNc1ccc(C(=O)/C=C(\O)C(F)(F)C(F)(F)F)cn1 [7j, 4,4,5,5,5-Pentafluoro-3-hydroxy-1-(6-(isobutylamino)pyridin-3-yl)pent-2-en-1-one] | 17

Same assay, conditions: Plasmodium falciparum, 3D7, Erythrocyte, 48 h; 200 nM compound, % of untreated control; read-out: % Growth at 200 nM (in vitro, 3D7)

Row | Structure (SMILES) | activity at 0.2 µM [%]
10 | CCCCNc1ccc(C(=O)/C=C(\O)C(F)(F)C(F)(F)F)cn1 [7f, 1-(6-(Butylamino)pyridin-3-yl)-4,4,5,5,5-pentafluoro-3-hydroxypent-2-en-1-one] | 10
11 | CCCCCNc1ccc(C(=O)/C=C(\O)C(F)(F)C(F)(F)F)cn1 [7g, 4,4,5,5,5-Pentafluoro-3-hydroxy-1-(6-(pentylamino)pyridin-3-yl)pent-2-en-1-one] | 6
12 | COCCCNc1ccc(C(=O)/C=C(\O)C(F)(F)C(F)(F)F)cn1 [7h, 4,4,5,5,5-Pentafluoro-3-hydroxy-1-(6-((3-methoxypropyl)amino)pyridin-3-yl)pent-2-en-1-one] | 17
13 | O=C(/C=C(\O)C(F)(F)C(F)(F)F)c1ccc(NCC(F)(F)F)nc1 [7i, 4,4,5,5,5-Pentafluoro-3-hydroxy-1-(6-((2,2,2-trifluoroethyl)amino)pyridin-3-yl)pent-2-en-1-one] | 9
14 | CC(C)CNc1ccc(C(=O)/C=C(\O)C(F)(F)C(F)(F)F)cn1 [7j, 4,4,5,5,5-Pentafluoro-3-hydroxy-1-(6-(isobutylamino)pyridin-3-yl)pent-2-en-1-one] | 11

Target: T1, PfFNT (Plasmodium falciparum, UniProt O77389)
T1 construct: expressed in transfected cells; membranes solubilized
T1 sequence (O77389 1-309): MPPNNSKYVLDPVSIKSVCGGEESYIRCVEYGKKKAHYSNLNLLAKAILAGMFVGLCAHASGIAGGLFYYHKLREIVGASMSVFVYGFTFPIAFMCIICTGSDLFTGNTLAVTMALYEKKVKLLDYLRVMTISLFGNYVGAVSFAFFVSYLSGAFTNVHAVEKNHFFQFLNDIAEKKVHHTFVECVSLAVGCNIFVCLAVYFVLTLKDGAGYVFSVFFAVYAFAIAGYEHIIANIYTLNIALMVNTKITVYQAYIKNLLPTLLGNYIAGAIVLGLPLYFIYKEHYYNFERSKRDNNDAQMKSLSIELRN
Assay: Yeast-based PfFNT 14C-lactate transport assay
Type: cell-based
Conditions: 14C-lactate transport, PfFNT wild type; read-out: IC50 (transport, yeast)
Method: Lactate transport functionality of PfFNT was assayed as described before.[4] Briefly, Saccharomyces cerevisiae W303-1A jen1Δady2Δcells[32] (MATa, can1-100, ade2-loc, his3-11-15, leu2-3,-112, trp1-1-1, ura3-1, jen1::kanMX4, ady2::hphMX4) kindly provided by M. Casal expressing PfFNT was grown at 29 °C to an OD600 of 1 (±0.1). Harvested cells were resuspended to an OD600 of 50 (±5) in 50 mM HEPES/Tris, pH 6.8 (±0.1). 10–15 min prior to the assay, 80 μL of yeast suspension were added to 1 μL of DMSO with or without inhibitor in a 1.5 mL reaction tube at 18 °C. Twenty μL of L-lactate solution spiked with [1-^14C]-L-lactate (Hartmann Analytic) was added yielding a 1 mM inward gradient with 0.04 μCi label. Transport was stopped after 30 s by abrupt dilution with 1 mL of ice-cold water, vacuum filtration via GF/C filter membranes (Whatman), and washing with 7 mL of ice-cold water. The radio label was analyzed by liquid scintillation counting in 3 mL of scintillation cocktail (Rotiszint eco plus, Carl Roth) using a Packard TriCarb 2900 TR (PerkinElmer Inc.).
Transport assays in yeast were done in triplicate biological replicates. At least nine technical replicates were measured around the IC50 value, concentrations with no or full inhibition were determined from at least three technical replicates. EC50-values were determined from 2 to 4 biological replicates. IC50 and EC50 curves were fitted by the Hill equation with variable slope (Graph Pad Prism 10). Error bars denote ± SEM (for n ≥ 3) or ± range (for n = 2). For the EC50-value of 7a the error of the fitting of the curve is given. Cytotoxicity was determined from biological triplicates; error is shown as SEM.

Row | Structure (SMILES) | IC50 [nM]
15 | CCCCNc1ccc(C(=O)/C=C(\O)C(F)(F)C(F)(F)F)cn1 [7f, 1-(6-(Butylamino)pyridin-3-yl)-4,4,5,5,5-pentafluoro-3-hydroxypent-2-en-1-one] | 330 ± 10
16 | CCCCCNc1ccc(C(=O)/C=C(\O)C(F)(F)C(F)(F)F)cn1 [7g, 4,4,5,5,5-Pentafluoro-3-hydroxy-1-(6-(pentylamino)pyridin-3-yl)pent-2-en-1-one] | 390 ± 30
17 | COCCCNc1ccc(C(=O)/C=C(\O)C(F)(F)C(F)(F)F)cn1 [7h, 4,4,5,5,5-Pentafluoro-3-hydroxy-1-(6-((3-methoxypropyl)amino)pyridin-3-yl)pent-2-en-1-one] | 160 ± 10
18 | O=C(/C=C(\O)C(F)(F)C(F)(F)F)c1ccc(NCC(F)(F)F)nc1 [7i, 4,4,5,5,5-Pentafluoro-3-hydroxy-1-(6-((2,2,2-trifluoroethyl)amino)pyridin-3-yl)pent-2-en-1-one] | 210 ± 20
19 | CC(C)CNc1ccc(C(=O)/C=C(\O)C(F)(F)C(F)(F)F)cn1 [7j, 4,4,5,5,5-Pentafluoro-3-hydroxy-1-(6-(isobutylamino)pyridin-3-yl)pent-2-en-1-one] | 280 ± 30

Target: T1, PfFNT
Assay: Fluorescence cross-correlation spectroscopy (FCCS) competition binding to solubilized PfFNT-GFP
Conditions: not given
Method: FCCS measurements were conducted and analyzed as before.[20],[30] Briefly, membranes of stably transfected cells expressing PfFNT with a C-terminal GFP (green) were solubilized. BH267.meta 2 fused with DY647 (red) was used as a tracer to monitor the binding of compounds in a competition assay. Assays were done in […] glass bottom plates (cat. no. PS96B-G175, SWISSCI, Switzerland) using a plate reader (Insight, Evotec Technologies, Germany) fitted with a U-Apo300 40× water immersion lens, NA 1.15 (Olympus, Japan). Excitation was done with an argon-ion laser (488 nm) and a helium–neon laser (633 nm). Fluorescence fluctuations were recorded 10 times for 5 s per sample and fitted using FCS+ plus Analyze (PerkinElmer software). Initially, IC50 values were determined from the concentration of the dual labeled complex titrated against a competitor in a range of 100 pM to 100 μM (Figure S1). Then, Ki values were calculated using the Cheng Prusoff equation[31] based on the previously determined KD value for the BH267.meta-DY647 tracer.[20]

Row | Structure (SMILES) | Ki [nM]
20 | CCCCNc1ccc(C(=O)/C=C(\O)C(F)(F)C(F)(F)F)cn1 [7f, 1-(6-(Butylamino)pyridin-3-yl)-4,4,5,5,5-pentafluoro-3-hydroxypent-2-en-1-one] | 27 ± 4
21 | CCCCCNc1ccc(C(=O)/C=C(\O)C(F)(F)C(F)(F)F)cn1 [7g, 4,4,5,5,5-Pentafluoro-3-hydroxy-1-(6-(pentylamino)pyridin-3-yl)pent-2-en-1-one] | 13 ± 1
22 | COCCCNc1ccc(C(=O)/C=C(\O)C(F)(F)C(F)(F)F)cn1 [7h, 4,4,5,5,5-Pentafluoro-3-hydroxy-1-(6-((3-methoxypropyl)amino)pyridin-3-yl)pent-2-en-1-one] | 55 ± 6
23 | O=C(/C=C(\O)C(F)(F)C(F)(F)F)c1ccc(NCC(F)(F)F)nc1 [7i, 4,4,5,5,5-Pentafluoro-3-hydroxy-1-(6-((2,2,2-trifluoroethyl)amino)pyridin-3-yl)pent-2-en-1-one] | 24 ± 6
24 | CC(C)CNc1ccc(C(=O)/C=C(\O)C(F)(F)C(F)(F)F)cn1 [7j, 4,4,5,5,5-Pentafluoro-3-hydroxy-1-(6-(isobutylamino)pyridin-3-yl)pent-2-en-1-one] | 30 ± 3
